Data as given in article PMC10663516 (Scientific Reports, 2023).

Tests used:
A431 and A549 = experiment: ADCC induced by anti-PD-L1 or anti-EGFR antibody (51Cr release); assay type: cell-based, human; settings: A431 and A549 target cells, PBMC effector cells, 4 h; TL-895 0.05 and 3 µM or 8 nM–25 µM
Description: In a second study, ADCC induced by anti-programmed death-ligand 1 (anti-PD-L1) or anti-EGFR antibody was measured using two cultured human tumor cell lines (A431 and A549, target cells; obtained from ATCC). Target cells were stimulated with human interferon-gamma (200 ng/mL) for 48 h to increase surface expression of PD-L1 target protein. Target cell and effector cells (peripheral blood mononuclear cells) were incubated for 4 h with (a) increasing concentrations of antibody (0.2–1000 ng/mL) and TL-895 (0, 0.05 and 3 µM), or (b) a fixed concentration of antibody (20 ng/mL) and increasing concentrations of TL-895 (8 nM–25 µM). ADCC analysis was based on the quantitation of chromium-51 (^51Cr) release during lysis of target cells using […] detection on a MicroBeta2 2450-0060 liquid scintillation and luminescence counter (PerkinElmer, Waltham, MA, USA).

Txk = target: T1, Txk (Homo sapiens, UniProt P42681); experiment: Millipore Kinase Profiler screening panel, Txk; assay type: biochemical
T1 construct: purchased EMD Millipore
T1 sequence (P42681 whole entry): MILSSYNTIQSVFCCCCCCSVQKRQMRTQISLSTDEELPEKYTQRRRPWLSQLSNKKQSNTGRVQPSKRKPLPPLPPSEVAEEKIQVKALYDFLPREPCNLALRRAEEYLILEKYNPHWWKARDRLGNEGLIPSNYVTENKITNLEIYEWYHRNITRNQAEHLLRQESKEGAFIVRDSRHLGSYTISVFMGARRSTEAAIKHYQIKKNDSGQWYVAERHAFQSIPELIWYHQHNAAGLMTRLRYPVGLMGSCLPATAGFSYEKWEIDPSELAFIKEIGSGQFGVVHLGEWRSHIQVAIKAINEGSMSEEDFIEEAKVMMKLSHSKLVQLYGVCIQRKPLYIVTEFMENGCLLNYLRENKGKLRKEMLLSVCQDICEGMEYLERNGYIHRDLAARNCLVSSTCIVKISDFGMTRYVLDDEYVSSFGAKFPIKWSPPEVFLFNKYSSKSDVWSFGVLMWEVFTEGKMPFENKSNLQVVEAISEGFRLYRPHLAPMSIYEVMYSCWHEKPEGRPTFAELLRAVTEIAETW
Description: The Kinase Profiler™ screening panel (EMD Millipore, Burlington, MA, USA) was used to test the inhibitory activity of TL-895 against 270 protein kinases. Kinases were incubated with TL-895 (1 µM) for 20 min to 4 h at room temperature, according to standard kinome screen procedures. […]

OCI-Ly18 = experiment: Cell viability, ATPlite; assay type: cell-based; settings: Homo sapiens, OCI-Ly18 (GCB-DLBCL), 72 h
Description: (§1) The potency of TL-895 effects on cell viability was further examined in vitro in a panel of diffuse large B-cell lymphoma (DLBCL) and MCL cell lines, comprising ten germinal B-cell like subtype (GCB)-DLBCL cell lines, six activated B-cell like (ABC)-DLBCL cell lines, and six MCL cell lines (Horizon Discovery Inc, Cambridge MA, USA). Cells were seeded into 384-well plates (500 cells/well) and incubated (37 °C for 24 h) before treatment with varying concentrations of TL-895 for 72 h. ATP levels were analyzed using the ATPlite Luminescence Assay System (Perkin Elmer, UK). Growth inhibition and maximum response were calculated using the Chalice Analyzer (Horizon Discovery Inc).

GRANTA-519 = experiment: Cell viability, ATPlite; assay type: cell-based; settings: Homo sapiens; GRANTA-519 (MCL), 72 h; read-out: Max response (GI %)
Description: as §1

HT = experiment: Cell viability, ATPlite; assay type: cell-based; settings: Homo sapiens; HT (GCB-DLBCL), 72 h; read-out: Max response (GI %)
Description: as §1

OCI-Ly19 = experiment: Cell viability, ATPlite; assay type: cell-based; settings: Homo sapiens; OCI-Ly19 (GCB-DLBCL), 72 h; read-out: Max response (GI %)
Description: as §1

REC-1 = experiment: Cell viability, ATPlite; assay type: cell-based; settings: Homo sapiens, Rec1, REC-1 (MCL), 72 h
Description: as §1

Mino = experiment: Cell viability, ATPlite; assay type: cell-based; settings: Homo sapiens, Mino (MCL), 72 h
Description: as §1

JVM-2 = experiment: Cell viability, ATPlite; assay type: cell-based; settings: Homo sapiens, JVM-2 (MCL), 72 h
Description: as §1

Pfeiffer = experiment: Cell viability, ATPlite; assay type: cell-based; settings: Homo sapiens, Pfeiffer (GCB-DLBCL), 72 h
Description: as §1

HU-DHL-1-epst = experiment: Cell viability, ATPlite; assay type: cell-based; settings: Homo sapiens, HU-DHL-1-epst (GCB-DLBCL), 72 h
Description: as §1

SU-DHL-5-epst = experiment: Cell viability, ATPlite; assay type: cell-based; settings: Homo sapiens; SU-DHL-5-epst (GCB-DLBCL), 72 h; read-out: Max response (GI %)
Description: as §1

DOHH-2 = experiment: Cell viability, ATPlite; assay type: cell-based; settings: Homo sapiens, DOHH-2 (GCB-DLBCL), 72 h
Description: as §1

Toledo = experiment: Cell viability, ATPlite; assay type: cell-based; settings: Homo sapiens, Toledo (GCB-DLBCL), 72 h
Description: as §1

Jeko-1 = experiment: Cell viability, ATPlite; assay type: cell-based; settings: Homo sapiens; Jeko-1 (MCL), 72 h; read-out: Max response (GI %)
Description: as §1

Maver-1 = experiment: Cell viability, ATPlite; assay type: cell-based; settings: Homo sapiens, Maver1, Maver-1 (MCL), 72 h
Description: as §1

U-2932 = experiment: Cell viability, ATPlite; assay type: cell-based; settings: Homo sapiens, U2932, U-2932 (ABC-DLBCL), 72 h
Description: as §1

DB = experiment: Cell viability, ATPlite; assay type: cell-based; settings: Homo sapiens; DB (GCB-DLBCL), 72 h; read-out: Max response (GI %)
Description: as §1

SU-DHL-4-epst = experiment: Cell viability, ATPlite; assay type: cell-based; settings: Homo sapiens, SU-DHL-4-epst (GCB-DLBCL), 72 h
Description: as §1

SU-DHL-8-epst = experiment: Cell viability, ATPlite; assay type: cell-based; settings: Homo sapiens, SU-DHL-8-epst (ABC-DLBCL), 72 h
Description: as §1

Compound: C=CC(=O)N1CCC(F)(CNc2ncnc(N)c2-c2ccc(Oc3ccccc3)cc2)CC1 [TL-895]
- Effect on ADCC of anti-PD-L1 or anti-EGFR antibodies (concentration–response, maximum cell lysis) (A431 and A549): did not affect the concentration–response or maximum cell lysis when combined with anti-PD-L1 or anti-EGFR antibodies, except at the highest concentrations tested
- IC50 (Txk): 0.062 µM
- GI50 (OCI-Ly18): 18.6 µM
- IC50 (OCI-Ly18): 22.3 µM
- Emax (OCI-Ly18; read-out: Max response (GI %)): 68%
- Emax (GRANTA-519): 50%
- Emax (HT): 17%
- Emax (OCI-Ly19): 36%
- GI50 (REC-1): 4.26 µM
- IC50 (REC-1): 13 µM
- Emax (REC-1; read-out: Max response (GI %)): 83%
- GI50 (Mino): 5.58 µM
- IC50 (Mino): 14 µM
- Emax (Mino; read-out: Max response (GI %)): 88%
- GI50 (JVM-2): 6.81 µM
- IC50 (JVM-2): 17.9 µM
- Emax (JVM-2; read-out: Max response (GI %)): 135%
- GI50 (Pfeiffer): 19.6 µM
- IC50 (Pfeiffer): 21 µM
- Emax (Pfeiffer; read-out: Max response (GI %)): 99%
- GI50 (HU-DHL-1-epst): 20.8 µM
- IC50 (HU-DHL-1-epst): 24.9 µM
- Emax (HU-DHL-1-epst; read-out: Max response (GI %)): 73%
- Emax (SU-DHL-5-epst): 42%
- GI50 (DOHH-2): 9.39 µM
- IC50 (DOHH-2): 11.4 µM
- Emax (DOHH-2; read-out: Max response (GI %)): 130%
- GI50 (Toledo): 3.84 µM
- IC50 (Toledo): 5.18 µM
- Emax (Toledo; read-out: Max response (GI %)): 195%
- Emax (Jeko-1): 42%
- GI50 (Maver-1): 27.5 µM
- Emax (Maver-1; read-out: Max response (GI %)): 53%
- GI50 (U-2932): 1.97 µM
- IC50 (U-2932): 6.6 µM
- Emax (U-2932; read-out: Max response (GI %)): 105%
- Emax (DB): 25%
- GI50 (SU-DHL-4-epst): 10.6 µM
- IC50 (SU-DHL-4-epst): 11.9 µM
- Emax (SU-DHL-4-epst; read-out: Max response (GI %)): 94%
- GI50 (SU-DHL-8-epst): 23 µM
- IC50 (SU-DHL-8-epst): 25.7 µM
- Emax (SU-DHL-8-epst; read-out: Max response (GI %)): 62%
